Experimental findings from patent publication US20120083473A1, “TREATMENT OF CONDITIONS BY TOLL-LIKE RECEPTOR MODULATORS” (priority 2010, published 2012) are described below.

The subject of series [1] is human monocytes (Mo). As to the kind of experiment: M1/M2 gene expression in human monocytes (Real-Time PCR). The class given is cell-based. How it is done:
To evaluate the effects of TMX on human cell activation, monocytes were isolated from buffy coats obtained from four different healthy donors. With respect to macrophage tolerance, cells were treated with Compound 2 (10 microM) up to 20 hours and then re-challenged with agonists/ligands of different TLRs (TLR2, TLR4, TLR5, TLR9, TLR7, etc. . . . ), including the TLR7 unconjugated ligand 1V209 (free pharmacophore) at a concentration of 10 microM.
Cell Culture and treatments. Monocytes (Mo) were obtained from buffycoats collected from healthy donors as previously described (Porta C et al, PNAS 2009). Cells were incubated in RPMI 1640 medium, containing 10% fetal bovine serum, 2 mM glutamine and 100 U/ml of penicillin-streptomycin. The concentrations for the different treatments were as follows: LPS (100 ng/ml) (Lipopolysaccharide from Salmonella Abortus Equi S-form, Alexis), CpG (1 microg/ml), Pam3CSK (2 microg/ml), Poly I:C (10 microg/ml), Loxorubine (100 microM), flagellin (100 ng/ml). To induce TMX tolerance, cells were incubated in the presence of TMX (10 microM) for 20 hrs, washed and maintained in RPMI medium for 2 hrs and then re-challenged with TMX (10 microM) for 4 hrs. To induce TMX-tolerization (T/M) cells were treated with TMX for 20 hrs, washed and then maintained in medium for additional 6 hours, without TMX re-challenge. To induce M1-activation cells were incubated in medium for 20 hrs, washed, left in medium for 2 hrs and finally stimulated with TMX (10 microM) for 4 hrs. Control cells (M/M) were cultured in medium for the entire period of the experiment. For gene expression analysis, total RNA was extracted from TMX treated and untreated cells with trizol (Invitrogen), according to the manufacturer's instructions. To analyze cytokines and chemokines production supernatants were collected 24 hrs after the second challenge with TMX.
Real-Time PCR. Total RNA was purified as previously described. Briefly, reverse transcription from 1 microgram of RNA was performed using a cDNA Archive kit (Applied Biosystem, NJ, USA). Real time PCR was performed using Power Syber Green PCR Master Mix (Applied Biosystem, NJ, USA) and detected by 7900HT Fast Real-Time System (Applied Biosystem, NJ, USA). Data were processed using the SDS2.2.2 software (Applied Biosystem, NJ, USA). Results were normalized to the expression of the housekeeping gene 8-actin and then expressed as folds of upregulation, with respect to the control cell population.
(In general: In qPCR the cycle at which signal appears reflects the starting amount.)

The nature of series [2]: Intravenous acute toxicity in mice. It counts as in vivo. The note with it: i.v.
In series [3] the test system is NF-κB and STATs. As to the kind of experiment: NF-κB and STATs activity in TMX-tolerant macrophages (Western blot). It counts as cell-based, mice. The procedure:
To investigate NF-κB and STATs activity upon TMX-mediated activation and tolerance, p65 and p50 NE-KB nuclear translocation and the levels of phospho-STATs proteins, respectively was analyzed. PEC treated 15 min with IFN-γ (500 U/mL) or with IL-10 (20 ng/ml) were used as positive controls for phospho-STAT1 and phospho-STAT3, respectively. In tolerance TMX 10 microM induces nuclear accumulation of p50 NF-kappaB and phosphorylation of STAT-3 (FIG. 6).
(§1) Cell Culture and treatments. Peritoneal exudate cells (PEC) were harvested from mice injected with 1 ml of 3% (w/v) thioglycollate medium (Difco, Detroit, Mich.) 4 days prior to isolation. PECs were incubated in RPMI 1640 medium, containing 10% fetal bovine serum, 2 mM glutamine and 100 U/ml of penicillin-streptomycin. The concentration for the different treatments were as follows: LPS (100 ng/ml) (Lipopolysaccharide from Salmonella Abortus Equi S-form, Alexis), CpG (1 μg/ml), Pam3CSK (2 μg/ml), Poly I:C (10 μg/ml), Loxorubine (100 μM), flagellin (100 ng/ml) IL-1β (20 ng/ml), TNF (20 ng/ml), IL-10 (20 ng/ml) (Peprotech), IFNγ (200 U/ml) (Peprotech). To induce TMX tolerance, cells were incubated in the presence of TMX (10 μM or 1 μM) for 20 hrs, washed and maintained in RPMI medium for 2 hrs and then re-challenged with TMX (10 μM) for 4 hrs. To induce TMX-tolerization (T/M) cells were treated with TMX for 20 hrs, washed and then maintained in medium for additional 6 hours, without TMX re-challenge. To induce M1-activation, cells were incubated in medium for 20 hrs, washed, left in medium for 2 hrs and finally stimulated with TMX (10 μM) for 4 hrs. Control cells (M/M) were cultured in medium for the entire period of the experiment. For gene expression analysis, total RNA was extracted from TMX treated and untreated cells with trizol (Invitrogen), according to the manufacturer's instructions. […]
Western blot analysis. For the NF-κB proteins, nuclear and cytosolic extracts were analyzed by SDS/PAGE (10% acrylamide) as described. […] Then, optical density was determined by “Quantity One” software.

Series [4] relates to murine peritoneal macrophages (PEC). Nature of the series: Secretion of M1 and M2 gene products by TMX-tolerant PEC (ELISA). The class given is cell-based, mice. How it is done: Based on the results of the gene expression analysis, performed by Real-Time PCR, selected gene products are validated at protein level, either by cytofluorimetry (surface molecules) or ELISA (secreted products).
The secretion of selected M1 and M2 gene products by TMX-tolerant murine peritoneal macrophages (PEC) was evaluated.
as §1, with “re-challenge.” for “re-challenge. To induce M1-activation, cells were incubated in medium for 20 hrs, washed, left in medium for 2 hrs and finally stimulated with TMX (10 μM) for 4 hrs. Control cells (M/M) were cultured in medium for the entire period of the experiment. For gene expression analysis, total RNA was extracted from TMX treated and untreated cells with trizol (Invitrogen), according to the manufacturer's instructions.”
Background: An ELISA detects its analyte on a solid surface through an enzyme-linked reagent.

`COCCOc1nc(N)c2nc(O)n(Cc3ccc(C(=O)NCCOCCOCCOCCOCCOCCOCCn4cc(CCC(=O)O)nn4)cc3)c2n1` [Compound 2]: in series [1], the “IL-10 expression in tolerant Mo as compared to activated Mo” value was “inhibited”; the “M1 markers CXCL9, IFNbeta, iNOS and M2 cytokine TGFbeta” value was “No significant modulation”; the “tolerizing and polarizing activity on human cells as compared to murine cells” value was “partial tolerizing and polarizing activity”. Moreover, in series [1] (10 microM, 20 hours, Mo from 3 out of 4 healthy donors), the “M1 (TNF-alpha, IL-1-beta IL-6, IL-12, CXCL10) gene expression in state of tolerance” value is “low”. Also, in series [1] (TMX pretreatment), the “M1 markers TNF-alpha, IL12-p40 IL-1 IL6 CXCL10 and IFNbeta” value is “down-regulated”. Further, in series [1] (few exceptions (CCL18, CCL22 in single donors)), the “M2 genes CCL17, CCL18, CCL22 in tolerant versus activated Mo” value is recorded as “further induced”. Also, the “M2 signature chemokines CCL17, CCL18 and CCL22” value in series [1] (presence of TMX compound) is listed as “increased”. For the same compound, in series [2], the “dose up to which no toxic clinical signs were produced” value is “up to 1000 mg/kg”. In series [3] (any condition), the “activation of STAT-6” value was “No detectable activation”. Besides, in series [3] (in tolerance, TMX 10 microM), the “nuclear accumulation of p50 NF-kappaB” value is “induces” and the “phosphorylation of STAT-3” value is reported as “induces”. For the same compound, in series [4] (ELISA), the “IL-1p and IL-6 in the supernatant of TMX-tolerant macrophages” value is given as “increased levels”. In addition, the “state of tolerance: M1 and M2 cytokines production” value in series [4] (only 10 microM TMX, ELISA of supernatants) is “low M1 and high M2 cytokines production”.
